Data from patent US6586460B1, “Heteroarotinoids containing urea or thiourea linker” (The Board of Regents for Oklahoma State University, priority 2001, dated 2003).

Legend:
retinoic acid receptors = assay: CV-1 co-transfection assay; assay type: cell-based
[1] = test system: RARE reporter in the SW962 vulvar carcinoma cell line; assay: RARE reporter transactivation through endogenous receptors; assay type: cell-based
Method: Both heteroarotinoids 11 and 13 resemble 4-HPR in that all are potent inducers of apoptosis. Since 4-HPR acts through a receptor-independent mechanism, agent 11 was evaluated for ability to transactivate a RARE reporter through endogenous receptors in the SW962 vulvar carcinoma cell line. […] Nelson, S. Subramanian, G. M. Weerasekare, J. B. Gale, M. K. Patterson, Jr., B. Wang, W. Wang, S. Lu, T. C. Rowland, P. DiSivestro, C. Lindamood, D. L. Hill, and K. D. Berlin]. No induction of the retinoid receptors was observed although 9-cis-RA casued a 4 to 10 fold induction of RARE-driven transcription in the same experiment with the SW962 cell line.

[2] = Liver toxicity (plasma ALT activity, liver sections); assay type: in vivo; settings: 10 mg/kg/day p.o.; for liver toxicity (ALT activities, liver sections assessed by pathologist): mice
Text: Toxic compounds can induce livers to release enzymes called serum transaminases, such as alanine aminotransferase (ALT). The assay for ALT is the most universally accepted clinical laboratory marker used to evaluate hepatic toxicity induced by pharmaceuticals [See “Serum Transferase Elevations as Indicators or Hepatic Injury Following the Administration of Drugs”, Reg. Tox. Pharm., volume 27, 1998, pp 119-130, by D. E. Amacher]. At the end of the treatment period, blood was drawn from each animal. Plasma was separated by centrifugation and stored at −70° C. The activity of ALT was determined in aliquots of plasma by standard spectrophotometric enzymatic techniques which were based upon the reduction of pyruvate by lactate dehydrogenase [See “Aged Mice are Resistant to the Hepatotoxic Effects of Endotoxin and Galactosamine” in Exp. Mol. Pathology, volume 59, 1993, pp 27-37]. The method measures the disappearance of NADH from time of incubation at 37° C. The activities have been expressed in μm/Liter/min (Table VI). Two different amounts of plasma were utilized in each assay to assure the measurement of the maximum rate.
There were no statistically significant differences between the ALT activities in the different treatment groups (Table VI, t-test: P>0.05). All numbers were in the normal range (63 to 307 μm/Liter/Min) of ALT values for the species of mouse utilized. All liver sections were assessed by an experienced pathologist in a blinded manner. The degree of necrosis was very mild in all animals.

[3] = test system: SW962 vulvar carcinoma cultures; assay: Apoptosis assay, Annexin-V-Flous/propidium iodide flow cytometry; assay type: cell-based
Text: Optimal chemotherapeutic agents will selectively kill tumor cells by inducing a natural form of cell death which is called “apoptosis”. Toxic agents kill both normal and tumor cells via a nonspecific process known as “necrosis”. To differentiate between apoptosis and necrosis in heteroarotinoid-treated cultures, a flow cytometric assay was employed. Treated cultures were stained with Annexin-V-Flous and propidium iodide, and the intensities of the stains are quantitated with Flow Cytometry. The Annexin-V-Flous binds to phosphatidyl serine on the exterior of apoptosing cells. This assay is specific for apoptosing cells because phosphatidyl serine is normally located on the inner membrane of the cells, a situation whereby the serine derivative cannot be bound by Annexin. However, during apoptosis, phosphatidyl serine is translocated to the outer membrane. The Flous moiety emits a signal that can be detected and quantitated by Flow Cytometry. In contrast, propidium iodide is taken up by necrotic cells that have lost membrane integrity. In this study, t-RA was used as a control for the non-apoptotic retinoids, and 4-HPR was used as a control for the apoptotic retinoids.

OVCAR-3 cells = assay: In vivo tumor xenograph; parameters: species or system athymic nu/nu mice; settings: 10 mg/kg/day p.o.; for tumor growth (average tumor volume, FIG. 1): 5 days/week, beginning 35 days after implantation; for sizes of the tumors compared with control group treated with sesame oil alone: after 15 days of treatment, t-test P<0.05
Method: Thirty female athymic nu/nu mice (Charles Rivers Laboratories, Wilmington, Mass.) were housed in a laminar flow room under sterile conditions at 83-85° F. The mice were quarantined for one week prior to the beginning of the study and were allowed access to autoclaved food (Purina 5001 mouse/rat sterilized diet, St. Louis, Mo.) and water ad libitum. Then OVCAR-3 cells in log phase growth were harvested by trypsinization, resuspended in RPMI culture medium, and centrifuged at 3000 rpm for 10 min. The pellets were then resuspended in RPMI culture medium at a concentration of 7×10^6 cells/mL before implantation into mice. Animals were injected with 3.5×10^6 cells into right scapular region with a 24-gauge needle/1 mL tuberculin syringe (Becton Dickinson, Rutherford, N.J.). Twenty four hours after tumor implantation, animals were randomized into four treatment groups of 5 animals each. Retinoids were administered daily p.o. beginning 35 days after tumor implantation with a 20-gauge intragastric feeding tube (Popper & Sons, New Hyde Park, N.Y.), 5 days/week, at doses of 10 mg/kg/day in 0.1 mL of super refined sesame oil (Corda, Inc., Parisppany, N.J.). Tumors were measured with calipers weekly, and tumor volumes were calculated using the formula: volume=length×width×heigth. Animal weights and clinical signs of overall health status and cutaneous toxicities were recorded weekly. Agents 11 and 13 were evaluated against the 4-HPR standard. FIG. 1 illustrates the overall changes in tumor volumes found in the mice in these experiments. […] The animals were monitored daily for signs of toxicity, such as skin eczema and bone fractures, but none were observed. This is added evidence that these heteroarotinoids are strong candidates for cancer chemotherapy.

Compound | transactivation of each of the retinoic acid receptors (retinoic acid receptors) | induction of RARE-driven transcription [1] | liver toxicity (ALT activities, liver sections assessed by pathologist) [2] | ALT ACTIVITY ([2]; plasma of mice at end of treatment period) | Percentage of induction of apoptosis in SW962 vulvar carcinoma cultures ([3]; Days 0) | Percentage of induction of apoptosis in SW962 vulvar carcinoma cultures ([3]; Days 1) | Percentage of induction of apoptosis in SW962 vulvar carcinoma cultures ([3]; Days 2) | Percentage of induction of apoptosis in SW962 vulvar carcinoma cultures ([3]; Days 3) | Percentage of induction of apoptosis in SW962 vulvar carcinoma cultures ([3]; Days 4) | Percentage of induction of apoptosis in SW962 vulvar carcinoma cultures ([3]; Days 7) | apoptosis in the SW962 vulvar cell, comparison in words ([3]; Table IV) | tumor growth (average tumor volume, FIG. 1) (OVCAR-3 cells) | sizes of the tumors compared with control group treated with sesame oil alone (OVCAR-3 cells)
CC1(C)CC(C)(C)c2cc(NC(=S)Nc3ccc([N+](=O)[O-])cc3)ccc2S1 [heteroarotinoid 11] | No transactivation | No induction | do not appear to induce significant liver toxicity | 118.5 ± 153.4 μm/Liter/Min | 3% | 6.11% | 11.42% | 39.06% | 48.79% | 47.5% | superior to the clinically used agent 4-HPR | inhibited tumor growth | significantly smaller
CCOC(=O)c1ccc(NC(=O)Nc2ccc3c(c2)C(C)(C)CC(C)(C)S3)cc1 [heteroarotinoid 13] |  |  | do not appear to induce significant liver toxicity |  |  |  |  |  |  |  |  | inhibited tumor growth | significantly smaller
